*1 amine or outer side, *2 acyl side, *3 side chain or, on linkers, in order; H or OH if unused. Where a SMILES comes first, the peptide text is derived from it. Bridges are numbered along the chain shown (N, C = ends). Roman numbers before positions name the chains, in order. X1 = O=C1c2c(O)ccc(O)c2C(=O)c2c(NCCN[*:2])ccc(NCCN[*:1])c21

From US4732970A, “Antitumor amino acid and peptide derivatives of 1,4-bis(aminoalkyl and hydroxy-aminoalkyl)amino)-5,8-dihydroxyanthraquinones” (priority 1986, dated 1988) come the findings set out here.

The test relates to lymphocytic leukemia P388. In words: Lymphocytic Leukemia P388 Test. In kind it is in vivo, BDF1 mice. Particulars: for Median Survival: BDF1 mice; for T/C × 100 (%): ratio of survival time treated/control; for response vs control in vivo at 0.75 mg/kg / response vs control in vivo at 1.5 mg/kg / response vs control in vivo at 3 mg/kg: Mus musculus, P388, ip, read-out: T/C × 100 (%). In a few lines: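 BDF1 mice (5–6 per group) were inoculated i.p. with 10^6 P388 cells, then dosed i.p. on days 1, 5 and 9 at various doses. Survival was followed for 60 days, and median survival time and the treated/control (T/C) survival ratio were calculated.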

Setting [1] is: dose 0.75 mg/kg intraperitoneally on days 1, 5 and 9.
Where [2] appears, read: dose 1.5 mg/kg intraperitoneally on days 1, 5 and 9.
Where [3] appears, read: dose 3 mg/kg intraperitoneally on days 1, 5 and 9.

Regarding `C[C@H](NC(=O)OCc1ccccc1)C(=O)NCC(=O)NCCNc1ccc(NCCNC(=O)CNC(=O)[C@H](C)NC(=O)OCc2ccccc2)c2c1C(=O)c1c(O)ccc(O)c1C2=O` [Example 55], the “Median Survival” value runs as follows: under setting [1], 12.5 days; under setting [2], 13.0 days; under setting [3], 19.0 days. Besides, the “T/C × 100 (%)” value under setting [1] stood at 114%, the “T/C × 100 (%)” value under setting [2] came out at 118% and the “T/C × 100 (%)” value under setting [3] worked out at 173%.
Consider `Br.Br.C[C@H](N)C(=O)NCC(=O)NCCNc1ccc(NCCNC(=O)CNC(=O)[C@H](C)N)c2c1C(=O)c1c(O)ccc(O)c1C2=O` [Example 56, N,N'-[(9,10-Dihydro-5,8-dihydroxy-9,10-dioxo-1,4-anthracenediyl)bis(imino-2,1-ethanediyl)]bis[L-alanyl-glycinamine]dihydrobromide], for which the “Median Survival” value by setting is: under setting [1], 21.0 days; under setting [2], 28.0 days; under setting [3], 32.5 days. In addition, the “T/C × 100 (%)” value runs as follows: under setting [1], 191%; under setting [2], 255%; under setting [3], 295%.
Consider `O=C(CNC(=O)CNC(=O)OCc1ccccc1)NCCNc1ccc(NCCNC(=O)CNC(=O)CNC(=O)OCc2ccccc2)c2c1C(=O)c1c(O)ccc(O)c1C2=O` [Example 57, N,N'-[(9,10-Dihydro-5,8-dihydroxy-9,10-dioxo-1,4-anthracenediyl)bis(imino-2,1-ethanediyl)]bis[N-[(phenylmethoxy)carbonyl]glycyl]glycinamide], for which the “Median Survival” value by setting is: under setting [1], 12.0 days; under setting [2], 14.0 days; under setting [3], 15.0 days. The “T/C × 100 (%)” value was found to be 109% under setting [1], 127% under setting [2] and 136% under setting [3].
As to `Br.Br.NCC(=O)NCC(=O)NCCNc1ccc(NCCNC(=O)CNC(=O)CN)c2c1C(=O)c1c(O)ccc(O)c1C2=O` [Example 58, N,N'-[(9,10-Dihydro-5,8-dihydroxy-9,10-dioxo-1,4-anthracenediyl)bis(imino-2,1-ethanediyl)]bis[glycyl-glycinamide]dihydrobromide], the “Median Survival” value reads like this: under setting [1], 22.0 days; under setting [2], 21.5 days; under setting [3], 24.0 days. Moreover, the “T/C × 100 (%)” value under setting [1] amounted to 200%, the “T/C × 100 (%)” value under setting [2] is reported as 195% and the “T/C × 100 (%)” value under setting [3] worked out at 218%.
On to `CC(C)(C)OC(=O)NCC(=O)NCC(=O)NCC(=O)NCCNc1ccc(NCCNC(=O)CNC(=O)CNC(=O)CNC(=O)OC(C)(C)C)c2c1C(=O)c1c(O)ccc(O)c1C2=O` [Example 59, N,N'-[(9,10-Dihydro-5,8-dihydroxy-9,10-dioxo-1,4-anthracenediyl)bis(imino-2,1-ethanediyl)]bis[N-[(1,1-dimethylethoxy)carbonyl]glycylglycyl]glycinamide], for which the “Median Survival” value runs as follows: under setting [1], 15.0 days; under setting [2], 15.5 days; under setting [3], 18.0 days. In addition, the “T/C × 100 (%)” value under setting [1] amounted to 136%, the “T/C × 100 (%)” value under setting [2] is 141% and the “T/C × 100 (%)” value under setting [3] came out at 164%.
`NCC(=O)NCC(=O)NCC(=O)NCCNc1ccc(NCCNC(=O)CNC(=O)CNC(=O)CN)c2c1C(=O)c1c(O)ccc(O)c1C2=O.O=C(O)C(F)(F)F.O=C(O)C(F)(F)F` [Example 60, N,N'-[(9,10-Dihydro-5,8-dihydroxy-9,10-dioxo-1,4-anthracenediyl)bis(imino-2,1-ethanediyl)]bis[glycylglycylglycinamide]bis(trifluoroacetate)]: the “Median Survival” value under setting [1] was found to be 19.5 days, the “Median Survival” value under setting [2] worked out at 23.0 days and the “Median Survival” value under setting [3] was 22.0 days. For the same compound, the “T/C × 100 (%)” value under setting [1] amounted to 177%, the “T/C × 100 (%)” value under setting [2] is on record as 209% and the “T/C × 100 (%)” value under setting [3] is recorded as 200%.
Consider `Br.Br.CC(C)C[C@H](NC(=O)[C@@H]1CCCN1C(=O)CN)C(=O)NCC(=O)N1CCC[C@H]1C(=O)NCCNc1ccc(NCCNC(=O)[C@@H]2CCCN2C(=O)CNC(=O)[C@H](CC(C)C)NC(=O)[C@@H]2CCCN2C(=O)CN)c2c1C(=O)c1c(O)ccc(O)c1C2=O` [Example 62, N,N'-[(9,10-Dihydro-5,8-dihydroxy-9,10-dioxo-1,4-anthracenediyl)bis(imino-2,1-ethanediyl)]bis[glycyl-L-prolyl-L-leucylglycyl-L-prolinamide]dihydrobromide], for which the “Median Survival” value is, setting by setting: under setting [1], 19.0 days; under setting [2], 22.0 days; under setting [3], 24.5 days. Moreover, the “T/C × 100 (%)” value came to 190% under setting [1], 220% under setting [2] and 245% under setting [3].
Take `Br.Br.C[C@H](NC(=O)[C@@H]1CCCN1C(=O)CNC(=O)CNC(=O)[C@@H]1CCCN1C(=O)CN)C(=O)NCCNc1ccc(NCCNC(=O)[C@H](C)NC(=O)[C@@H]2CCCN2C(=O)CNC(=O)CNC(=O)[C@@H]2CCCN2C(=O)CN)c2c1C(=O)c1c(O)ccc(O)c1C2=O` [Example 64, N,N'-[(9,10-Dihydro-5,8-dihydroxy-9,10-dioxo-1,4-anthracenediyl)bis(imino-2,1-ethanediyl)]bis[glycyl-L-prolylglycylglycyl-L-prolyl-L-alaninamide]-dihydrobromide] (I: H-GPGGPA / II: H-GPGGPA; linker I:C-II:C via X1): the response vs control in vivo at 0.75 mg/kg is 195%, the response vs control in vivo at 1.5 mg/kg was found to be 205% and the response vs control in vivo at 3 mg/kg turned out to be 255%. Besides, the “Median Survival” value under setting [1] was found to be 19.5 days. For the same compound, the “Median Survival” value under setting [2] is 20.5 days. In addition, the “Median Survival” value under setting [3] was 25.5 days.
Consider `CC(C)C[C@H](NC(=O)[C@H](C)NC(=O)OC(C)(C)C)C(=O)NCCNc1ccc(NCCNC(=O)[C@H](CC(C)C)NC(=O)[C@H](C)NC(=O)OC(C)(C)C)c2c1C(=O)c1c(O)ccc(O)c1C2=O` [Example 65], for which the “Median Survival” value runs as follows: under setting [1], 12.0 days; under setting [2], 12.0 days; under setting [3], 13.5 days. Further, the “T/C × 100 (%)” value runs as follows: under setting [1], 109%; under setting [2], 109%; under setting [3], 123%.
Take `CC(C)C[C@H](NC(=O)[C@H](C)N)C(=O)NCCNc1ccc(NCCNC(=O)[C@H](CC(C)C)NC(=O)[C@H](C)N)c2c1C(=O)c1c(O)ccc(O)c1C2=O.O=C(O)C(F)(F)F.O=C(O)C(F)(F)F` [Example 66, N,N'-[(9,10-Dihydro-5,8-dihydroxy-9,10-dioxo-1,4-anthracenediyl)bis(imino-2,1-ethanediyl)]bis[L-alanyl-L-leucinamide]bis(trifluoroacetate)]: the “Median Survival” value reads like this: under setting [1], 19.0 days; under setting [2], 20.0 days; under setting [3], 28.0 days. Also, the “T/C × 100 (%)” value under setting [1] amounted to 173%, the “T/C × 100 (%)” value under setting [2] amounted to 182% and the “T/C × 100 (%)” value under setting [3] is 255%.
Regarding `CC(C)C[C@H](NC(=O)[C@H](C)NC(=O)[C@H](C)NC(=O)OC(C)(C)C)C(=O)NCCNc1ccc(NCCNC(=O)[C@H](CC(C)C)NC(=O)[C@H](C)NC(=O)[C@H](C)NC(=O)OC(C)(C)C)c2c1C(=O)c1c(O)ccc(O)c1C2=O` [Example 67, N,N'-[(9,10-Dihydro-5,8-dihydroxy-9,10-dioxo-1,4-anthracenediyl)bis(imino-2,1-ethanediyl)]bis[N-[(1,1-dimethylethoxy)carbonyl]-L-alanyl-L-alanyl-L-leucinamide]], the response vs control in vivo at 0.75 mg/kg amounted to 155%, the response vs control in vivo at 1.5 mg/kg was found to be 165% and the response vs control in vivo at 3 mg/kg was 160%. In addition, the “Median Survival” value under setting [1] came to 15.5 days. Further, under setting [2], the “Median Survival” value was found to be 16.5 days. Moreover, the “Median Survival” value under setting [3] came out at 16.0 days.
Take `CC(C)C[C@H](NC(=O)[C@H](C)NC(=O)[C@H](C)N)C(=O)NCCNc1ccc(NCCNC(=O)[C@H](CC(C)C)NC(=O)[C@H](C)NC(=O)[C@H](C)N)c2c1C(=O)c1c(O)ccc(O)c1C2=O.O=C(O)C(F)(F)F.O=C(O)C(F)(F)F` [Example 68]: the “Median Survival” value is 21.0 days under setting [1], 21.5 days under setting [2] and 22.0 days under setting [3]. Also, the “T/C × 100 (%)” value is, setting by setting: under setting [1], 210%; under setting [2], 215%; under setting [3], 220%.
As for `CC(C)C[C@H](NC(=O)CNC(=O)CNC(=O)OCc1ccccc1)C(=O)NCCNc1ccc(NCCNC(=O)[C@H](CC(C)C)NC(=O)CNC(=O)CNC(=O)OCc2ccccc2)c2c1C(=O)c1c(O)ccc(O)c1C2=O` [Example 69, N,N'-[(9,10-Dihydro-5,8-dihydroxy-9,10-dioxo-1,4-anthracenediyl)bis(imino-2,1-ethanediyl)]bis[N-[(phenylmethoxy)carbonyl]glycylglycyl-L-leucinamide]], the response vs control in vivo at 0.75 mg/kg amounted to 170%, the response vs control in vivo at 1.5 mg/kg was 170% and the response vs control in vivo at 3 mg/kg is 180%. The “Median Survival” value under setting [1] came out at 17.0 days. Besides, the “Median Survival” value under setting [2] amounted to 17.0 days. Further, the “Median Survival” value under setting [3] is 18.0 days.
For `Br.Br.CC(C)C[C@H](NC(=O)CNC(=O)CN)C(=O)NCCNc1ccc(NCCNC(=O)[C@H](CC(C)C)NC(=O)CNC(=O)CN)c2c1C(=O)c1c(O)ccc(O)c1C2=O` [Example 70, N,N'-[(9,10-Dihydro-5,8-dihydroxy-9,10-dioxo-1,4-anthracenediyl)bis(imino-2,1-ethanediyl)]bis[glycylglycyl-L-leucinamide]dihydrobromide], the “Median Survival” value is, setting by setting: under setting [1], 22.0 days; under setting [2], 22.5 days; under setting [3], 44.5 days. Moreover, the “T/C × 100 (%)” value is 220% under setting [1], 225% under setting [2] and 445% under setting [3].
